Results as given in publication PMC9866218, “Characterization and Chemical Synthesis of Cm39 (α-KTx 4.8): A Scorpion Toxin That Inhibits Voltage-Gated K^+ Channel KV1.2 and Small- and Intermediate-Conductance Ca^2+-Activated K^+ Channels KCa2.2 and KCa3.1” (Toxins, 2023).
“Also recorded” adds a separate entry of the source.

What was measured:
hNaV1.5 = experiment: Whole-cell patch-clamp, block of NaV1.5 current; assay type: cell-based, human; settings: CHO cells
From the text: We, therefore, aimed at testing the pharmacological activity of sCm39 on a battery of various potassium and sodium ion channels. Among the tested channels were six members of human voltage-gated K^+ (hKV) channels from Shaker family, hKV1.1-hKV1.6 (Figure 3A–F) and three members of Ca^2+-activated potassium channel; hKCa2.2 (SK2, Figure 3I), the small-conductance Ca^2+-activated channel; hKCa3.1 (IKCa1, SK4. Figure 3J), the intermediate-conductance Ca^2+-activated channel expressed in T lymphocytes; and mKCa1.1 (BK, Slo1, MaxiK, Figure 3H), the large-conductance voltage- and Ca^2+-activated channel of mice. In addition, we also screened the effect of Cm39 on hKV11.1 (hERG1, Figure 3G), a voltage-gated cardiac K^+ channel, and two human voltage-gated sodium (hNaV) channels, hNaV1.4 (Figure 3K) and hNaV1.5 (Figure 3L), expressed in skeletal and cardiac muscles, respectively. These ion channels were heterologously expressed in the CHO or HEK cell lines except for KV1.3. Human peripheral T lymphocytes. They were stimulated with Phytohemagglutinin A (PHA) to increase the KV1.3 channel expression, and Ca^2+-free intracellular solution was used to avoid KCa3.1 channel activation. […]
Those plasmids which lack a fluorescent tag were co-transfected with a plasmid encoding GFP. […] Generally, currents were recorded 24 to 48 h post transfection. […]

hKV1.3 = assay type: cell-based, human
From the text: We, therefore, aimed at testing the pharmacological activity of sCm39 on a battery of various potassium and sodium ion channels. Among the tested channels were six members of human voltage-gated K^+ (hKV) channels from Shaker family, hKV1.1-hKV1.6 (Figure 3A–F) and three members of Ca^2+-activated potassium channel; hKCa2.2 (SK2, Figure 3I), the small-conductance Ca^2+-activated channel; hKCa3.1 (IKCa1, SK4. Figure 3J), the intermediate-conductance Ca^2+-activated channel expressed in T lymphocytes; and mKCa1.1 (BK, Slo1, MaxiK, Figure 3H), the large-conductance voltage- and Ca^2+-activated channel of mice. In addition, we also screened the effect of Cm39 on hKV11.1 (hERG1, Figure 3G), a voltage-gated cardiac K^+ channel, and two human voltage-gated sodium (hNaV) channels, hNaV1.4 (Figure 3K) and hNaV1.5 (Figure 3L), expressed in skeletal and cardiac muscles, respectively. These ion channels were heterologously expressed in the CHO or HEK cell lines except for KV1.3. Human peripheral T lymphocytes. They were stimulated with Phytohemagglutinin A (PHA) to increase the KV1.3 channel expression, and Ca^2+-free intracellular solution was used to avoid KCa3.1 channel activation. Appropriate depolarization protocols were used to record ionic currents in voltage-clamped cells (see Figure 3 insets and Material and Methods for details). Freshly dissolved sCm39 in extracellular solution was applied at 1 µM concentration on the cell using a custom-built micro-perfusion system at ~200 µL/min flow rate.
For the measurement of KV1.x, mKCa1.1 and NaV1.x currents the extracellular solution was composed of (in mM) 145 NaCl, 5 KCl, 2.5 CaCl2, 1 MgCl2, 10 HEPES and 5.5 glucose, pH 7.35. In the HK-150 and Na^+-free bath solution bath all Na^+ was substituted by K^+ or Choline-Cl, respectively, other ingredients remained unchanged. […]
Whole-cell currents were recorded in voltage-clamped cells following standard protocols by using a Multiclamp 700B amplifier connected to a computer with Axon Digidata1440 digitizer and for data acquisition, Clampex 10.7 software was used (Molecular Devices).

CC[C@H](C)[C@@H]1NC(=O)[C@H](C)NC(=O)[C@H](C)NC(=O)[C@H](CCCCN)NC(=O)[C@@H]2CSSC[C@@H](C(=O)N[C@@H](Cc3ccc(O)cc3)C(=O)N[C@@H](Cc3ccc(O)cc3)C(=O)O)NC(=O)[C@H](CCCCN)NC(=O)[C@@H]3CSSC[C@H](NC(=O)[C@H](CCC(=O)O)NC(=O)[C@H](CO)NC(=O)[C@H](CO)NC(=O)[C@H](CO)NC(=O)[C@H](CCCCN)NC(=O)[C@@H](NC(=O)[C@H](CCCCN)NC(=O)[C@H](Cc4c[nH]cn4)NC(=O)[C@H](CC(N)=O)NC(=O)[C@@H](NC(=O)[C@H](Cc4ccccc4)NC(=O)[C@@H](N)[C@@H](C)O)[C@@H](C)CC)CSSC[C@H](NC(=O)[C@H](CCCCN)NC(=O)CNC(=O)[C@H](CO)NC(=O)[C@H](C)NC(=O)[C@H](CCCNC(=N)N)NC(=O)CNC1=O)C(=O)N[C@@H]([C@@H](C)CC)C(=O)N[C@@H](CC(N)=O)C(=O)N[C@@H](CO)C(=O)N[C@@H]([C@@H](C)O)C(=O)N3)C(=O)N[C@@H](CC(C)C)C(=O)N1CCC[C@H]1C(=O)N[C@@H](C)C(=O)N2 [Cm39]
inhibition (in words) (hNaV1.5; 1 μM): does not inhibit; also recorded: did not show any effect | decrease in current (hNaV1.5; 1 µM, 3−5 min, n = 3−5): < 3% | decrease in current (hKV1.3; 1 µM, PHA-activated human peripheral T lymphocytes, 3−5 min, n = 3−5): < 3% | inhibition (in words) (hKV1.3; 1 μM, human peripheral T lymphocytes): does not inhibit; also recorded: did not show any effect
